The results in this text go back to patent US5159081A, “Intermediates of peripherally selective N-carbonyl-3,4,4-trisubstituted piperidine opioid antagonists” (Eli Lilly and Company, priority 1991, dated 1992).

Where a name gives a salt, the structure may show the parent alone. Read-outs that look alike come from different tables or passages of the source. A value given as a limit tells only on which side of the number the result lay.

Assay [1] deals with peripheral opioid receptors (Mus musculus, UniProt P42866). In words: mouse diarrhea test: precipitated diarrhea in morphine-maintained mice (peripheral opioid activity). The assay is classed as in vivo. The note with it: mouse diarrhea test, morphine-maintained mice, subcutaneous or oral, 30 min observation.
Sequence of peripheral opioid receptors (Mus musculus, UniProt P42866) (P42866 whole entry): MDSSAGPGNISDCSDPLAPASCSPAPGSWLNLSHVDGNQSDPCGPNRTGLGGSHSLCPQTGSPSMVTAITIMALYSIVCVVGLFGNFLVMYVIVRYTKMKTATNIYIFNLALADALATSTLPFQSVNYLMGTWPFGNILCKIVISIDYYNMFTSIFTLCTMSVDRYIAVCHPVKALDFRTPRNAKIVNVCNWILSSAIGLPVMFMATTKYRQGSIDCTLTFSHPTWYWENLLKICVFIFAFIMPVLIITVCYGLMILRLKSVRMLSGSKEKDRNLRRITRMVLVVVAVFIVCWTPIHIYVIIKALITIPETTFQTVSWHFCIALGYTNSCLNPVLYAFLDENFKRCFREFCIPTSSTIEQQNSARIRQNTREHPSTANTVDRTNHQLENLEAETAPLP
In assay [2] the test system is peripheral opioid receptors. The description is as above. The format is in vivo.
Assay [3] has as its target T1, mu receptor (Rattus norvegicus, UniProt P33535).
T1 construct: The brain tissue, rat whole brain minus cerebellum for mu was homogenized; from tissue; host or cells: brain minus cerebellum of male Sprague Dawley rats, homogenate fraction
In words: Naloxone [3H] opioid receptor binding assay (mu receptor). The note with it: 20 min; for Ki: rat whole brain minus cerebellum, pH 7.4, 37° C., read-out: Ki. Further details: species or system rat (male Sprague Dawley).

The target of assay [4] is T2, opioid receptor (Mus musculus, UniProt P42866).
T2 construct: Five CF-1 male mice (Charles River, Portage, MI); from tissue; host or cells: living CF-1 male mice (whole animal, endogenous receptor)
T2 sequence (P42866 whole entry): as above
In words: in vivo. The note with it: sc, mouse writhing test, s.c. 20 min before acetic acid, read-out: AD50 (the source's name). Set-up: species or system CF-1 male mice.

Setting [5] is: AD50 mouse writhing / ED50 mouse diarrhea, higher = greater relative peripheral antagonism.
Where [6] appears, read: pH 7.4, 10 nM test compound, [3H]naloxone 0.5 nM, mu receptor, read-out: % displacement at 10 nM.
Setting [7] is: pH 7.4, 100 nM test compound, [3H]naloxone 0.5 nM, mu receptor, read-out: % displacement at 100 nM.
Where [8] appears, read: pH 7.4, read-out: % displacement at 10 nM.
Setting [9] is: pH 7.4, read-out: % displacement at 100 nM.
The mark [10] stands for this setting: dose of antagonist that reduced inhibition of writhing by 1.25 mg/kg morphine sulfate to 50%.

T1 sequence (P33535 whole entry): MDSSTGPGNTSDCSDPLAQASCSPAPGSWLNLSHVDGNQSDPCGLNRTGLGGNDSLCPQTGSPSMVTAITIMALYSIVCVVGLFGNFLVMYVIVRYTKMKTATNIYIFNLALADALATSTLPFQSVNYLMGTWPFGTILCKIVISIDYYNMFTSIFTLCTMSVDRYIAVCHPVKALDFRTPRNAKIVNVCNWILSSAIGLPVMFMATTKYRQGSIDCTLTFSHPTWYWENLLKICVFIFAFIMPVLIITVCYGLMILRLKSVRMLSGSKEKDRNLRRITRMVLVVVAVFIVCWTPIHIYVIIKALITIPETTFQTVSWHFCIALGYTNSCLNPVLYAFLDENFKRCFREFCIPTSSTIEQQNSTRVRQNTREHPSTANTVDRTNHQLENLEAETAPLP

Turning to `C[C@@H]1CN(C[C@@H](Cc2ccccc2)NC(=O)CC(=O)O)CC[C@]1(C)c1cccc(O)c1` [Example 13, Trans-3-((2-(4-(3-hydroxyphenyl)-3,4-dimethyl-1-piperidinyl)-1-(D-(phenylmethyl)ethyl)amino))-3-oxopropionic acid monohydrate], the ED50 in assay [1] (0.5 h, read-out: ED50) was 0.29 mg/kg; in assay [4] ([…]), > 40 mg/kg. The “Ratio (ratio of AD50 to ED50)” value in assay [2] (setting [5]) is on record as > 138. Besides, the inhibition at 0.01 µM in assay [3] (setting [6]) came out at 24%. For the same molecule, the inhibition at 0.1 µM in assay [3] (setting [7]) was determined as 72%.
As for `CCOC(=O)CCCC(=O)N[C@@H](CC1CCCCC1)CN1CC[C@@](C)(c2cccc(O)c2)[C@@H](C)C1` [Example 52], the ED50 in assay [1] came out at 0.02 mg/kg; in assay [4] ([…]) it was 28 mg/kg. Also, the “Ratio (ratio of AD50 to ED50)” value in assay [2] (setting [5]) is given as 1400. Moreover, the inhibition at 0.01 µM in assay [3] (setting [8]) was 87%. Also, the inhibition at 0.1 µM in assay [3] (setting [9]) was found to be 96%. In addition, the inhibition constant (Ki) in assay [3] ([…], [3H]naloxone 0.5 nM) worked out at 2.34 nM.
For `CCCCCCCOC(=O)CCCC(=O)N[C@@H](CC1CCCCC1)CN1CC[C@@](C)(c2cccc(O)c2)[C@@H](C)C1` [Example 57], the ED50 was 0.068 mg/kg in assay [1] (0.5 h, read-out: ED50) and > 40 mg/kg in assay [4] ([…]). Further, the “Ratio (ratio of AD50 to ED50)” value in assay [2] (setting [5]) was > 588. Further, in assay [3] (setting [6]), the inhibition at 0.01 µM turned out to be 0%. For the same molecule, the inhibition at 0.1 µM in assay [3] (setting [7]) worked out at 9%.
As for `C[C@H]1CN(CC(Cc2ccccc2)NC(=O)CCCC(=O)O)CC[C@@]1(C)c1cccc(O)c1` (relative stereo) [Example 15, Trans-5-((2-(4-(3-hydroxyphenyl)-3,4-dimethyl-1-piperidinyl)-1-(D-(phenylmethyl)ethyl)amino))-5-oxopentanoic acid monohydrate], the ED50 in assay [1] is 0.028 mg/kg; in assay [4] ([…]) it was 1.39 mg/kg. The “Ratio (ratio of AD50 to ED50)” value in assay [2] (mouse, in vivo) came out at 50. In addition, in assay [3] (setting [8]), the inhibition at 0.01 µM is 80%. Further, the inhibition at 0.1 µM in assay [3] (setting [9]) came to 99%. In assay [3] ([…], [3H]naloxone 0.5 nM), the inhibition constant (Ki) worked out at 2.96 nM.
For the molecule `CC(C)C(=O)NCCCC(=O)NC(CCCNC(=N)N[N+](=O)[O-])C(=O)NC(CCN1CC[C@@](C)(c2cccc(O)c2)[C@@H](C)C1)c1ccccc1` (single isomer, unassigned; (-)) [Example 9, (-)-N-(1-phenyl-3-(trans-4-(3-hydroxyphenyl)-3,4-dimethyl-1-piperidinyl)propyl)-2-((1-oxo-4-(2-methyl-1-oxopropyl)amino)butyl)amino-5-((imino(nitroamino)-methyl)amino)pentanamide], the ED50 in assay [1] was 0.25 mg/kg; in assay [4] (setting [10]) it was > 1.25 mg/kg. In assay [2] (setting [5]), the “Ratio (ratio of AD50 to ED50)” value is on record as > 5. Moreover, the inhibition at 0.1 µM in assay [3] (setting [9]) is 100%. The inhibition at 0.01 µM in assay [3] (pH 7.4, 10 nM test compound, [3H]naloxone 0.5 nM, […], read-out: % displacement at 10 nM) is 92%. Also, the Ki in assay [3] ([…], [3H]naloxone 0.5 nM) stood at 1.33 nM.
On to `COC(=O)CCCC(=O)N[C@@H](CC1CCCCC1)CN1CC[C@@](C)(c2cccc(O)c2)[C@@H](C)C1` [Example 50], for which the ED50 in assay [1] was determined as 0.056 mg/kg; in assay [4] ([…]), 20 mg/kg. The “Ratio (ratio of AD50 to ED50)” value in assay [2] (setting [5]) was 357. Also, the inhibition at 0.01 µM in assay [3] (setting [8]) stood at 87%. Besides, in assay [3] (setting [9]), the inhibition at 0.1 µM worked out at 99%. Further, the inhibitory constant (Ki) in assay [3] ([…], [3H]naloxone 0.5 nM) came out at 3.24 nM.
Consider `C[C@H]1CN(CCN(C(=O)CCC(=O)O)C2CCCC2)CC[C@@]1(C)c1cccc(O)c1` (relative stereo) [Example 24, 4-(cyclopentyl-2-(trans-4-(3-hydroxyphenyl)-3,4-dimethyl-1-piperidinyl)ethyl)amino)-4-oxobutanoic acid hemihydrate], for which the ED50 is 0.62 mg/kg in assay [1] (0.5 h, read-out: ED50) and 19.2 mg/kg in assay [4] ([…]). The “Ratio (ratio of AD50 to ED50)” value in assay [2] (setting [5]) amounted to 31. The inhibition at 0.01 µM in assay [3] (setting [6]) was 48%. Moreover, in assay [3] (setting [7]), the inhibition at 0.1 µM came out at 89%.
In the case of `C[C@@H]1CN(C[C@H](CC2CCCCC2)NC(=O)CCCC(=O)O)CC[C@]1(C)c1cccc(O)c1` [Example 47D], the ED50 in assay [1] was 0.01 mg/kg; in assay [4] ([…]), > 40 mg/kg. In assay [2] (setting [5]), the “Ratio (ratio of AD50 to ED50)” value is > 4000. Further, the inhibition at 0.01 µM in assay [3] (setting [8]) came out at 85%. Also, in assay [3] (setting [9]), the inhibition at 0.1 µM stood at 95%. Further, in assay [3] ([…], [3H]naloxone 0.5 nM), the Ki came out at 1.55 nM.
As for `Cc1oc(=O)oc1COC(=O)CCCC(=O)N[C@@H](CC1CCCCC1)CN1CC[C@@](C)(c2cccc(O)c2)[C@@H](C)C1` [Example 70], the ED50 is 0.017 mg/kg in assay [1] and 18.2 mg/kg in assay [4] ([…]). Moreover, the “Ratio (ratio of AD50 to ED50)” value in assay [2] (setting [5]) stood at 1070. In assay [3] (setting [8]), the inhibition at 0.01 µM is 89%. Further, the inhibition at 0.1 µM in assay [3] (setting [9]) amounted to 99%. Further, in assay [3] ([…], [3H]naloxone 0.5 nM), the Ki turned out to be 1.78 nM.
Take `CCOC(=O)CC(=O)N[C@H](Cc1ccccc1)CN1CC[C@@](C)(c2cccc(O)c2)[C@@H](C)C1` [Example 10, Ethyl trans-(3R,4R,R)-3-((2-(4-(3-hydroxyphenyl)-3,4-dimethyl-1-piperidinyl)-1-(D-(phenylmethyl)ethyl)amino))-3-oxopropionate hydrochloride]: the ED50 in assay [1] came out at 0.12 mg/kg; in assay [4] ([…]) it was 9.3 mg/kg. In assay [2] (setting [5]), the “Ratio (ratio of AD50 to ED50)” value came to 78. In assay [3] (setting [8]), the inhibition at 0.01 µM was found to be 61%. Also, the inhibition at 0.1 µM in assay [3] (setting [9]) came to 94%. In assay [3] ([…], [3H]naloxone 0.5 nM), the inhibition constant Ki came out at 1.46 nM.
In the case of `CNC(=O)CC(=O)N(CCN1CC[C@@](C)(c2cccc(O)c2)[C@@H](C)C1)C1CCCCC1` (relative stereo) [Example 36, N-Methyl-3-oxo-3-((2-(trans-4-(3-hydroxyphenyl)-3,4-dimethyl-1-piperidinyl)ethyl)cyclohexylamino)propanamidemonohydrochloride monohydrate], the ED50 in assay [1] came out at 0.39 mg/kg; in assay [4] ([…]) it was 2.9 mg/kg. Also, in assay [2] (setting [5]), the “Ratio (ratio of AD50 to ED50)” value is 8. The inhibition at 0.01 µM in assay [3] (setting [8]) was found to be 85%. Also, the inhibition at 0.1 µM in assay [3] (setting [9]) turned out to be 99%. The inhibition constant Ki in assay [3] ([…], [3H]naloxone 0.5 nM) amounted to 3.01 nM.
As for `C[C@H]1CN(CCC(NC(=O)C(CCCNC(=N)N[N+](=O)[O-])NC(=O)CCCC(=O)NCc2ccccc2)c2ccccc2)CC[C@@]1(C)c1cccc(O)c1` (single isomer, unassigned; (-)) [Example 8, (-)-N-(1-phenyl-3-(trans-4-(3-hydroxyphenyl)-3,4-dimethyl-1-piperidinyl)propyl)-2-((1,5-dioxo-5-(phenylmethyl)amino)pentyl)amino-5-((imino(nitroamino)methyl)-amino)pentanamide], the ED50 in assay [1] was 0.64 mg/kg; in assay [4] (setting [10]), > 1.25 mg/kg. In addition, the “Ratio (ratio of AD50 to ED50)” value in assay [2] (setting [5]) is listed as > 2. Also, the inhibition at 0.01 µM in assay [3] (setting [8]) is 95%. The inhibition at 0.1 µM in assay [3] (setting [9]) is 99%. The Ki in assay [3] ([…], [3H]naloxone 0.5 nM) came out at 0.68 nM.
`CC(C)COC(=O)CCC(=O)N(CCN1CC[C@@](C)(c2cccc(O)c2)[C@@H](C)C1)C1CCCCC1` (relative stereo) [Example 72]: the ED50 in assay [1] (0.5 h, read-out: ED50) was 0.017 mg/kg; in assay [4] ([…]), 5.5 mg/kg. Further, the “Ratio (ratio of AD50 to ED50)” value in assay [2] (setting [5]) is given as 324. Further, in assay [3] (setting [6]), the inhibition at 0.01 µM was 73%. Further, in assay [3] (setting [7]), the inhibition at 0.1 µM stood at 96%.
Take `CC1CN(CCNC(=O)[C@H](CCCNC(=N)N[N+](=O)[O-])NC(=O)OC(C)(C)C)CCC1(C)c1cccc(O)c1` (stereo partly drawn) [Example 44, (1-(((2-(Trans-4-(3-hydroxyphenyl)-3,4-dimethyl-1-piperidinyl)ethyl)amino)carbonyl)-4-((imino(nitroamino)methyl)amino)butyl) carbamic acid, 1,1-dimethylethyl ester]: the ED50 in assay [1] was 0.07 mg/kg; in assay [4] ([…]) it was > 2 mg/kg. In addition, in assay [2] (setting [5]), the “Ratio (ratio of AD50 to ED50)” value is recorded as > 30. Also, in assay [3] (setting [8]), the inhibition at 0.01 µM came to 63%. For the same molecule, in assay [3] (setting [9]), the inhibition at 0.1 µM stood at 85%. The Ki in assay [3] ([…], [3H]naloxone 0.5 nM) was 2.34 nM.

For orientation: Ki means a measure of affinity in units of concentration, obtained from inhibition or displacement.
